From patent publication US8778889B2, “Antimicrobial decapeptide oral hygiene treatment” (The United States of America as represented by the …, priority 2003, dated 2014)
Converted amounts (≈) assume the structure as drawn. Square brackets hold non-standard residues; d marks the D form. Peptide text beside a SMILES is read from it. αMeK = C[C@](N)(CCCCN)C(=O)O

Tests used:
[1] = system: MRSA VVRAMC #10; format: cell-based, Staphylococcus aureus
Text: (§1) As shown in the table below, many drug-resistant pathogens including multidrug-resistant Acinetobacter baumannii (clinical isolates) were susceptible to the bactericidal activity of the newly developed antimicrobial peptides. […] This is shown by their lower MIC and MBC against a number of antibiotic-resistant bacteria including methicillin-resistant Staphylococcus aureus, vancomycin-resistant Enterococci, and multidrug-resistant Acinetobacter baumannii. Many of these resistant strains are involved in nosocomial infections, which affect the immunocompromised and the elderly individuals with weakened defenses. The tests were done in a broth microdilution assay as described in our earlier publication (Concannon et al., 2003).

[2] = system: MRSA WRAMC #12; format: cell-based, Staphylococcus aureus
Text: as §1

[3] = system: MRSA WRAMC #9; format: cell-based, Staphylococcus aureus
Text: as §1

[4] = system: MRSA ATCC #33591; format: cell-based, Staphylococcus aureus
Text: as §1

[5] = system: MRSA ATCC #43300; format: cell-based, Staphylococcus aureus
Text: as §1

[6] = system: MRSA VVRAMC #1; format: cell-based, Staphylococcus aureus
Text: as §1

[7] = system: A. baumannii WRAMC #11; format: cell-based, Acinetobacter baumannii
Text: as §1

[8] = system: A. baumannii WRAMC #5; format: cell-based, Acinetobacter baumannii
Text: as §1

[9] = system: A. baumannii WRAMC #4; format: cell-based, Acinetobacter baumannii
Text: as §1

[10] = system: A. baumannii WRAMC #17; format: cell-based, Acinetobacter baumannii
Text: as §1

[11] = system: A. baumannii WRAMC #16; format: cell-based, Acinetobacter baumannii
Text: as §1

[12] = system: A. baumannii WRAMC #14; format: cell-based, Acinetobacter baumannii
Text: as §1

[13] = system: A. baumannii WRAMC #13; format: cell-based, Acinetobacter baumannii
Text: as §1

[14] = system: A. baumannii WRAMC #8; format: cell-based, Acinetobacter baumannii
Text: as §1

[15] = system: A. baumannii WRAMC #18; format: cell-based, Acinetobacter baumannii
Text: as §1

[16] = system: A. baumannii WRAMC #2; format: cell-based, Acinetobacter baumannii
Text: as §1

[17] = system: biofilms grown on saliva-coated HA surfaces; test: Live/Dead BacLight staining with confocal laser scanning microscopy of treated biofilms; format: cell-based, human salivary bacteria; settings: 66 h-old biofilms; KSL 200 μg/ml, Bzl 0.001%, CHX 0.12%
Procedure: (A) Effect of KSL on intact versus disrupted 45 h biofilms formed on saliva-coated HA disks by salivary bacteria using the in vitro plaque assay. A Mann-Whitney test was used for comparison of log reductions in CFU between the experimental groups (KSL-treated intact or disrupted biofilms) with the control groups (dH2O-treated intact or disrupted biofilms). The single asterisk represents a statistically significant difference between KSL and dH2O-treated intact biofilms (p<0.05). Likewise, double asterisks represent a statistically significant difference between KSL and dH2O-treated disrupted biofilms (p<0.01). […] (B) Effect of benzalkonium chloride in promoting the bactericidal activity of KSL against 66 h-old intact oral biofilms formed on saliva-coated HA disks using the in vitro plaque system. A Kruskal-Wallis test was used to compare log reductions in CFU among various treatment groups including the control group (dH2O-treated). The single asterisk represents a statistically significant difference between the combined treatment of KSL and benzalkonium chloride (Bzl) and dH2O (p<0.001), KSL (p<0.01), or Bzl (p<0.01)-treated intact biofilms. Double asterisks represent a statistically significant difference between CHX and dH2O (p<0.001) or Bzl (P<0.05)-treated intact biofilms. […] No significant difference in viability counts was observed between CHX-treated versus the combined use of KSL and Bzl. For (A) and (B), the data represent the determinations of one of three separate experiments, each performed in quadruplicate. Bars represent standard deviations. (C) Confocal images of control and treated biofilms grown on saliva-coated HA surfaces. Live/Dead BacLight™ Viability kit (Molecular Probes, Eugene, Oreg.) was used to assess the viability of biofilm cells exposed to different treatments. […] An excitation wavelength of 488 nm was used and the fluorescence light emitted was collected by two separate emission filters, 500-530 nm (SYTO 9, live), and 650-710 nm (propidium iodide, dead). […]

[18] = system: oral biofilms formed on saliva-coated HA disks by salivary bacteria; test: In vitro plaque assay, viable counts of oral biofilms on saliva-coated HA disks; format: cell-based, human salivary bacteria
Text: In conjunction with the dual flow cell system, a modification of an in vitro plaque model of biofilm formation described by Guggenheim et al. (Guggenheim et al., 2001) was used to determine the effects of tested antimicrobials and other agents on developed oral biofilms (see Appendix I for details). HA disks (Clarkson, south Williamsport, Pa.) were employed as substrates for salivary bacteria to form biofilms.
To determine the inhibitory activity of KSL on developed oral biofilms, disks containing 45 h-old biofilms were transferred to wells containing aqueous KSL (200 μg/ml; 1 ml/well). Following 30 min exposure at 37° C., disks were rinsed with 3×1 ml of saline and transferred to sterile 15 ml polypropylene tubes containing 1 ml PBS. Biofilm cells adherent to surfaces (after treatment) were recovered by sonicating for 2 min at 5 watts with a Microson ultrasonic cell disrupter equipped with a cup horn (Misonix Inc., Farmingdale, N.Y.). Settings including the time interval used in the sonication were predetermined empirically to yield maximal recovery of adherent biofilm cells.
The effect of KSL on disrupted biofilms was assessed by recovering biofilm cells from HA disks (45 h-old biofilms) through sonication as described above. The detached biofilm cells (in sterile dH2O) were mixed with an equal volume of aqueous KSL to obtain a final peptide concentration of 200 μg/ml, and the reaction mixtures incubated at 37° C. for 30 min. The interactions of KSL and suspended biofilm cells were terminated by washing in PBS.
To determine the effect of the surface-active agent (benzalkonium chloride; Sigma, St. Louis, Mo.) in promoting the killing of intact biofilms by KSL, 66 h-old oral biofilms were treated with KSL (200 μg/ml), benzalkonium chloride (0.001%), or a combination of the two agents, followed by viable counts determinations and confocal laser scanning microscopy of treated samples.
Viable counts of biofilm cells derived from treated disks or disrupted biofilms were determined by spiral plating serially diluted samples onto blood agar plates. Distilled water or 0.12% aqueous chlorhexidine digluconate (Sigma) was used as the negative or positive control, respectively. The 45 h-old biofilms were exposed to chlorhexidine for 1 min, and to water for 30 min at 37° C.
In this assay, HA disks (Clarkson Chromatography Products, Inc., South Williamsport, Pa.) were used as surfaces on which plaque formation can occur. Before use, sterile HA disks were conditioned in the wells of a 24-well microtiter plate (Becton Dickinson, Franklin Lakes, N.J.) containing 50% sterile saliva by incubating at room temperature for a minimum of two hours on a rotating platform at 95 rpm. The saliva was removed and each well inoculated with isolated salivary bacteria at a bacterial cell concentration of 1.0×10^7 cells/ml in sterile 50% whole saliva. After two hours of incubation (with rotation) at 37° C. to allow the bacteria to adhere to surfaces, unattached bacteria were removed and replaced with supplemented saliva-based medium. The plates were incubated with rotation at 37° C. for 45 h (with medium replaced three times), or 66 h (with medium replaced five times) in a CO2 incubator prior to treatments, and the recovery of biofilm cells from treated or untreated disks.
In these studies, KSL or KSL-W was used at 200 μg/ml, whereas Bzl and CPC were used at 0.001% and 0.0025%, respectively. […]

[19] = system: VRE WRAMC #6; format: cell-based, Enterococci
Text: as §1

[20] = system: VRE WRAMC #3; format: cell-based, Enterococci
Text: as §1

[21] = system: VRE ATCC #51299; format: cell-based, Enterococci
Text: as §1

[22] = system: VRE VVRAMC #7; format: cell-based, Enterococci
Text: as §1

[23] = system: A. baumannii WRAMC #19; format: cell-based, Acinetobacter baumannii
Text: as §1

[24] = system: A. baumannii ATCC #19606; format: cell-based, Acinetobacter baumannii
Text: as §1

[25] = system: A. baumannii WRAMC #15; format: cell-based, Acinetobacter baumannii
Text: as §1

CC(C)[C@H](NC(=O)[C@H](CCCCN)NC(=O)[C@@H](N)CCCCN)C(=O)N[C@H](C(=O)N[C@@H](Cc1ccccc1)C(=O)N[C@@](C)(CCCCN)C(=O)N[C@H](C(=O)N[C@@H](CCCCN)C(=O)N[C@@H](Cc1ccccc1)C(=O)N[C@@H](CCCCN)C(N)=O)C(C)C)C(C)C [KSL-M, NH2-Lys-Lys-Val-Val-Phe-Lys(me)-Val-Lys-Phe-Lys-CONH2] (H-KKVVF[αMeK]VKFK-NH2)
MBC [1]: >200 µg/mL
MIC [1]: >200 µg/mL
MBC [2]: >200 µg/mL
MIC [2]: >200 µg/mL
MBC [3]: >200 µg/mL
MIC [3]: >200 µg/mL
MBC [4]: >200 µg/mL
MIC [4]: >200 µg/mL
MBC [5]: >200 µg/mL
MIC [5]: >200 µg/mL
MBC [6]: >200 µg/mL
MIC [6]: >200 µg/mL
MBC [7]: 100 µg/mL (≈ 79.1 µM)
MBC [8]: 50 µg/mL (≈ 39.6 µM)
MBC [9]: 50 µg/mL (≈ 39.6 µM)
MIC [9]: 25 µg/mL (≈ 19.8 µM)
MBC [10]: 200 µg/mL (≈ 158 µM)
MIC [10]: 100 µg/mL (≈ 79.1 µM)
MBC [11]: 100 µg/mL (≈ 79.1 µM)
MIC [11]: 50 µg/mL (≈ 39.6 µM)
MBC [12]: 200 µg/mL (≈ 158 µM)
MBC [13]: 200 µg/mL (≈ 158 µM)
MBC [14]: >200 µg/mL
MIC [14]: >200 µg/mL
MBC [15]: 100 µg/mL (≈ 79.1 µM)
MBC [16]: 200 µg/mL (≈ 158 µM)

[H]/N=C(\N/C(=N/[H])NCCCCCCNC(=N)NC(=N)Nc1ccc(Cl)cc1)Nc1ccc(Cl)cc1 [chlorhexidine, chlorhexidine digluconate, reference compound]
viability of biofilm cells by live/dead staining [17]: significantly reduced the viability of biofilm cells
reduction of viable counts, intact biofilms ([18]; intact 45-h-old biofilms, 0.12% chlorhexidine, 1 min): larger reduction of viable counts

H-DDDEEKFLRRIGRYGKKVVFWVKFK-NH2 [H1-2]
MBC [1]: 25 µg/mL
MIC [1]: 1.56 µg/mL
MBC [2]: 6.25 µg/mL
MIC [2]: 3.125 µg/mL
MBC [3]: 3.125 µg/mL
MBC [4]: 12.5 µg/mL
MIC [4]: 3.125 µg/mL
MBC [5]: 12.5 µg/mL
MIC [5]: 3.125 µg/mL
MBC [6]: 25 µg/mL
MBC [19]: 6.25 µg/mL
MIC [19]: <1.56 µg/mL
MBC [20]: 25 µg/mL
MIC [20]: 6.25 µg/mL
MBC [21]: 50 µg/mL
MIC [21]: 12.5 (25) μg/ml
MIC [22]: <1.56 µg/mL
MBC ([22]; VRE VVRAMC #7): 0 µg/mL
MBC [7]: 50 µg/mL
MIC [7]: 25 µg/mL
MBC [8]: 25 µg/mL
MBC [9]: 50 µg/mL
MIC [9]: 25 µg/mL
MBC [10]: 100 µg/mL
MIC [10]: 25 µg/mL
MBC [23]: 200 µg/mL
MBC [11]: 25 µg/mL
MIC [11]: 12.5 µg/mL
MBC [12]: 50 µg/mL
MBC [13]: 50 µg/mL
MBC [24]: 25 µg/mL
MIC [24]: 12.5 µg/mL
MBC [25]: 50 µg/mL
MIC [25]: 25 µg/mL
MBC [14]: 25 µg/mL
MBC [15]: 25 µg/mL
MBC [16]: 200 µg/mL
MIC [16]: 25 µg/mL

benzalkonium chloride [reference compound]
viability of biofilm cells by live/dead staining [17]: less impact on the viability of biofilm cells
effect on viability of intact biofilms compared to water treatment ([18]; 66 h-old oral biofilms, KSL 200 μg/ml, benzalkonium chloride 0.001%): less effect on the viability
